A short description of data set [1]: octanol/water partition coefficient (log P) by high-performance liquid chromatography, JIS Z 7260-117 (2006).
Source text: (§1) In the present invention (including examples and the like described later), the octanol/water partition coefficient (log P) described above can be measured by a high-performance liquid chromatography according to JIS Z 7260-117 (2006), and it is defined by the following equation:
(§2) log P=log(^┌Co┘/^┌Cw┘) • Co: concentration of an examined substance in a 1-octanol layer • Cw: concentration of an examined substance in an aqueous layer
(§3) The octanol/water partition coefficients (log P) of the vulcanization accelerators obtained in the following respective production examples were measured by a high-performance liquid chromatography according to JIS Z 7260-117 (2006). A high-performance liquid chromatography manufactured by Shimadzu Corporation was used.

Source text for physchem: as §1, §2, §3

`CCCCN(Sc1nc2ccccc2s1)C(C)(C)C` [N-n-butyl-N-t-butylbenzothiazole-2-sulfenamide] came in with a melting point of 55 to 56 °C. The chromatographic logP in data set [1] is 5.8.

`CCN(Sc1nc2ccccc2s1)C(C)(C)C` [N-ethyl-N-t-butylbenzothiazole-2-sulfenamide] came in with a melting point of 60 to 61 °C. This molecule yielded a chromatographic logP in data set [1] of 4.9.

Consider `CC(C)N(Sc1nc2ccccc2s1)C(C)(C)C` [N-i-propyl-N-t-butylbenzothiazole-2-sulfenamide], for which the chromatographic logP in “physchem” stood at 5.1.

The molecule `CCCN(Sc1nc2ccccc2s1)C(C)(C)C` [N-n-propyl-N-t-butylbenzothiazole-2-sulfenamide] had a chromatographic logP in data set [1] of 5.3.

For the molecule `CN(Sc1nc2ccccc2s1)C(C)(C)C` [N-methyl-N-t-butylbenzothiazole-2-sulfenamide], the melting point lay in the range of 56 to 58 °C. This molecule yielded a chromatographic logP in data set [1] of 4.5.
